Measurements as given in patent US8378097B2, “3-(1,3-benzodioxol-5-yl)-6-(4-cyclopropylpiperazin-1-yl)-pyridazine, its salts and solvates and its use as histamine H3 receptor antagonist” (High Point Pharmaceuticals, LLC, priority 2006, dated 2013).
Structures can show the parent of a compound that is named as a salt.

Legend:
[1] = tests with mice: intake of food; format: in vivo; details: in tests with mice

c1cc2c(cc1-c1ccc(N3CCN(C4CC4)CC3)nn1)OCO2 [Example 1, 3-(1,3-Benzodioxol-5-yl)-6-(4-cyclopropylpiperazin-1-yl)pyridazine dihydrochloride]
mutagenic activity (mutagenic activity test): No mutagenic activity
effect on the intake of food [1]: reducing effect on the intake of food
